Data from patent US20250163104A1, “MACROCYCLIC IMMUNOMODULATORS” (priority 2021, published 2025).
Where a SMILES comes first, the peptide text is derived from it. Bridges are numbered along the chain shown (N, C = ends). [ ]: non-standard residue; d: D form. Bip = N[C@@H](Cc1ccc(-c2ccccc2)cc1)C(=O)O; Orn = NCCC[C@H](N)C(=O)O; Dab = NCC[C@H](N)C(=O)O; Dap = NC[C@H](N)C(=O)O

biological target: T1, human PD-1 / PD-L1-Ig binding on Jurkat cell line over-expressing human PD-1 (Jurkat-PD-1) (Homo sapiens, UniProt Q15116); test: Jurkat-PD-1 Cell Binding High-Content Screening Assay (CBA); format: cell-based; conditions: Jurkat HPD1_PDL1 IC50, Jurkat-PD-1 cells, PE-labeled PD-L1-Ig 20 nM final
T1 construct: expressed in transfected cells; host or cells: Jurkat
Procedure, shortened: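 Binding of fluorescent PD-L1-Ig (phycoerythrin linked via the Ig tag, 20 nM final) to PD-1-overexpressing Jurkat cells was imaged after a 2 h, 37° C compound pretreatment and 1 hour ligand incubation.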

T1 sequence (Q15116 25-288): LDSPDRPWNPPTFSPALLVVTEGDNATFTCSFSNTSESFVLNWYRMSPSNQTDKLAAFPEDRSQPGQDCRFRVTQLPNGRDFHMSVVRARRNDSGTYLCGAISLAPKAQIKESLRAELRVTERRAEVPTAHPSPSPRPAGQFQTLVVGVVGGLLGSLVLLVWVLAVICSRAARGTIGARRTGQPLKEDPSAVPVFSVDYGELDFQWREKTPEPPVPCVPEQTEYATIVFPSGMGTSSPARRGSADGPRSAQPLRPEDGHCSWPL

| IC50 | SMILES |
| --- | --- |
| 0.124 µM | CC(C)C[C@@H]1NC(=O)[C@H](Cc2c[nH]c3ccccc23)NC(=O)[C@H](CC(=O)O)NC(=O)[C@H](Cc2ccc(O)cc2)NC(=O)[C@H](Cc2ccccc2)NC(=O)CSC[C@@H](C(=O)NCC(N)=O)NC(=O)[C@H]([C@@H](C)O)NC(=O)[C@H](C(C)C)NC(=O)[C@H](CC(C)C)NC(=O)[C@H](CC(N)=O)NC(=O)[C@@H](C)NC(=O)[C@H](CN)NC(=O)[C@H](C(C)C)NC(=O)[C@H](Cc2ccc(-c3ccccc3)cc2)NC1=O [Compound 1074] ({CH2CO}-FYDWL[Bip]V[Dap][dA]NLVTCG-NH2; thioether N-14) |

same assay, conditions: Jurkat-PD-1 cells, PE-labeled PD-L1-Ig 20 nM final; read-out: Jurkat HPD1_PDL1 IC50

| SMILES | IC50 |
| --- | --- |
| CC(C)C[C@@H]1NC(=O)[C@H](CCN)NC(=O)[C@@H](CC(C)C)NC(=O)[C@H](CCN)NC(=O)[C@H](C(C)C)NC(=O)[C@H](Cc2ccc(-c3ccccc3)cc2)NC(=O)[C@H](C(C)C)NC(=O)[C@H](Cc2c[nH]c3ccccc23)NC(=O)[C@H](CC(N)=O)NC(=O)[C@H](Cc2ccc(O)cc2)NC(=O)[C@H](CC(N)=O)NC(=O)CSC[C@@H](C(=O)N[C@@H](C)C(N)=O)NC(=O)[C@H](CO)NC(=O)[C@H](C(C)C)NC1=O [Compound 1080] ({CH2CO}-NYNWV[Bip]V[Dab][dL][Dab]LVSCA-NH2; thioether N-14) | 0.0471 µM |
| CC(C)C[C@@H]1NC(=O)[C@H](CCN)NC(=O)[C@@H](CC(C)C)NC(=O)[C@H](CCCN)NC(=O)[C@H](C(C)C)NC(=O)[C@H](Cc2ccc(-c3ccccc3)cc2)NC(=O)[C@H](C(C)C)NC(=O)[C@H](Cc2c[nH]c3ccccc23)NC(=O)[C@H](CC(N)=O)NC(=O)[C@H](Cc2ccc(O)cc2)NC(=O)[C@H](CC(N)=O)NC(=O)CSC[C@@H](C(=O)NCC(N)=O)NC(=O)[C@H](CO)NC(=O)[C@H](C(C)C)NC1=O [Compound 1081] ({CH2CO}-NYNWV[Bip]V[Orn][dL][Dab]LVSCG-NH2; thioether N-14) | 0.0286 µM |
| CC(C)C[C@@H]1NC(=O)[C@H](CCN)NC(=O)[C@@H](CC(C)C)NC(=O)[C@H](CCCCN)NC(=O)[C@H](C(C)C)NC(=O)[C@H](Cc2ccc(-c3ccccc3)cc2)NC(=O)[C@H](C(C)C)NC(=O)[C@H](Cc2c[nH]c3ccccc23)NC(=O)[C@H](CC(N)=O)NC(=O)[C@H](Cc2ccc(O)cc2)NC(=O)[C@H](CC(N)=O)NC(=O)CSC[C@@H](C(=O)NCC(N)=O)NC(=O)[C@H](CO)NC(=O)[C@H](C(C)C)NC1=O [Compound 1082] ({CH2CO}-NYNWV[Bip]VK[dL][Dab]LVSCG-NH2; thioether N-14) | 0.0415 µM |
| CC(C)C[C@@H]1NC(=O)[C@H](CCN)NC(=O)[C@@H](CC(C)C)NC(=O)[C@H](CCN)NC(=O)[C@H](C(C)C)NC(=O)[C@H](Cc2ccc(-c3ccccc3)cc2)NC(=O)[C@H](C(C)C)NC(=O)[C@H](Cc2c[nH]c3ccccc23)NC(=O)[C@H](CC(N)=O)NC(=O)[C@H](Cc2ccc(O)cc2)NC(=O)[C@H](CC(N)=O)NC(=O)CSC[C@@H](C(=O)NCC(N)=O)NC(=O)[C@H](CO)NC(=O)[C@H](C(C)C)NC1=O [Compound 1083] ({CH2CO}-NYNWV[Bip]V[Dab][dL][Dab]LVSCG-NH2; thioether N-14) | 0.0168 µM |
| CC(C)C[C@@H]1NC(=O)[C@H](CCN)NC(=O)[C@@H](CC(C)C)NC(=O)[C@H](CCCN)NC(=O)[C@H](C(C)C)NC(=O)[C@H](Cc2ccc(-c3ccccc3)cc2)NC(=O)[C@H](C(C)C)NC(=O)[C@H](Cc2c[nH]c3ccccc23)NC(=O)[C@H](CC(N)=O)NC(=O)[C@H](Cc2ccc(O)cc2)NC(=O)[C@H](CC(N)=O)NC(=O)CSC[C@@H](C(=O)NCC(N)=O)NC(=O)[C@H]([C@@H](C)O)NC(=O)[C@H](C(C)C)NC1=O [Compound 1084] ({CH2CO}-NYNWV[Bip]V[Orn][dL][Dab]LVTCG-NH2; thioether N-14) | 0.0289 µM |
| CC(C)C[C@@H]1NC(=O)[C@H](CCN)NC(=O)[C@@H](CC(C)C)NC(=O)[C@H](CCCCN)NC(=O)[C@H](C(C)C)NC(=O)[C@H](Cc2ccc(-c3ccccc3)cc2)NC(=O)[C@H](C(C)C)NC(=O)[C@H](Cc2c[nH]c3ccccc23)NC(=O)[C@H](CC(N)=O)NC(=O)[C@H](Cc2ccc(O)cc2)NC(=O)[C@H](CC(N)=O)NC(=O)CSC[C@@H](C(=O)NCC(N)=O)NC(=O)[C@H]([C@@H](C)O)NC(=O)[C@H](C(C)C)NC1=O [Compound 1085] ({CH2CO}-NYNWV[Bip]VK[dL][Dab]LVTCG-NH2; thioether N-14) | 0.0223 µM |

The remaining lines, values ahead:

| IC50 | SMILES |
| --- | --- |
| 0.0501 µM | CC(C)C[C@@H]1NC(=O)[C@H](Cc2c[nH]c3ccccc23)NC(=O)[C@H](CC(=O)O)NC(=O)[C@H](Cc2ccc(O)cc2)NC(=O)[C@H](Cc2ccccc2)NC(=O)CSC[C@@H](C(=O)N[C@@H](C)C(N)=O)NC(=O)[C@H](CO)NC(=O)[C@H](C(C)C)NC(=O)[C@H](CC(C)C)NC(=O)[C@H](CC(N)=O)NC(=O)[C@@H](C)NC(=O)[C@H](CN)NC(=O)[C@H](C(C)C)NC(=O)[C@H](Cc2ccc(-c3ccccc3)cc2)NC1=O [Compound 1075] ({CH2CO}-FYDWL[Bip]V[Dap][dA]NLVSCA-NH2; thioether N-14) |
| 0.0687 µM | CC(C)C[C@@H]1NC(=O)[C@H](Cc2c[nH]c3ccccc23)NC(=O)[C@H](CC(=O)O)NC(=O)[C@H](Cc2ccc(O)cc2)NC(=O)[C@H](Cc2ccccc2)NC(=O)CSC[C@@H](C(=O)N[C@@H](C)C(N)=O)NC(=O)[C@H]([C@@H](C)O)NC(=O)[C@H](C(C)C)NC(=O)[C@H](CC(C)C)NC(=O)[C@H](CC(N)=O)NC(=O)[C@@H](C)NC(=O)[C@H](CN)NC(=O)[C@H](C(C)C)NC(=O)[C@H](Cc2ccc(-c3ccccc3)cc2)NC1=O [Compound 1076] ({CH2CO}-FYDWL[Bip]V[Dap][dA]NLVTCA-NH2; thioether N-14) |
| 0.0467 µM | CC(C)C[C@@H]1NC(=O)[C@H](Cc2c[nH]c3ccccc23)NC(=O)[C@H](CC(=O)O)NC(=O)[C@H](Cc2ccc(O)cc2)NC(=O)[C@H](Cc2ccccc2)NC(=O)CSC[C@@H](C(=O)NCC(N)=O)NC(=O)[C@H](CO)NC(=O)[C@H](C(C)C)NC(=O)[C@H](CC(C)C)NC(=O)[C@H](CC(N)=O)NC(=O)[C@@H](C)NC(=O)[C@H](CN)NC(=O)[C@H](C(C)C)NC(=O)[C@H](Cc2ccc(-c3ccccc3)cc2)NC1=O [Compound 1077] ({CH2CO}-FYDWL[Bip]V[Dap][dA]NLVSCG-NH2; thioether N-14) |
| 0.0402 µM | CC(C)C[C@@H]1NC(=O)[C@H](Cc2c[nH]c3ccccc23)NC(=O)[C@H](CC(=O)O)NC(=O)[C@H](Cc2ccc(O)cc2)NC(=O)[C@H](Cc2ccccc2)NC(=O)CSC[C@@H](C(=O)NCC(N)=O)NC(=O)[C@H]([C@@H](C)O)NC(=O)[C@H](C(C)C)NC(=O)[C@H](CC(C)C)NC(=O)[C@H](CCN)NC(=O)[C@@H](C)NC(=O)[C@H](CN)NC(=O)[C@H](C(C)C)NC(=O)[C@H](Cc2ccc(-c3ccccc3)cc2)NC1=O [Compound 1078] ({CH2CO}-FYDWL[Bip]V[Dap][dA][Dab]LVTCG-NH2; thioether N-14) |
| 0.0295 µM | CC(C)C[C@@H]1NC(=O)[C@H](Cc2c[nH]c3ccccc23)NC(=O)[C@H](CC(=O)O)NC(=O)[C@H](Cc2ccc(O)cc2)NC(=O)[C@H](Cc2ccccc2)NC(=O)CSC[C@@H](C(=O)N[C@@H](C)C(N)=O)NC(=O)[C@H](CO)NC(=O)[C@H](C(C)C)NC(=O)[C@H](CC(C)C)NC(=O)[C@H](CCN)NC(=O)[C@@H](C)NC(=O)[C@H](CN)NC(=O)[C@H](C(C)C)NC(=O)[C@H](Cc2ccc(-c3ccccc3)cc2)NC1=O [Compound 1079] ({CH2CO}-FYDWL[Bip]V[Dap][dA][Dab]LVSCA-NH2; thioether N-14) |
